Entries after “also recorded” stand apart in the source; their conditions may differ.

One data set deals with BT474-Gluc cells. Put plainly: In vitro sensitivity to CPT of BT474-Gluc cells isolated from brain tumors and parental cells. It is filed as cell-based, human. To be noted: cells from IC-, ICD-, IV-established tumors and parental cells; dose-response curves.
The test system of data set [1] is human BT474-Gluc breast cancer metastatic brain tumors. The data set can be described thus: Antitumor efficacy, brain tumors established by ICD injection. It is filed as in vivo, Rag2−/−; Il2rg−/− mice. How it is done: Intracardiac (ICD) Brain Metastasis Model. All animals were treated according to the NIH guidelines for animal care and use as approved by the Caltech Institutional Animal Care and Use Committee. BT474-Gluc cells, transduced with an expression cassette encoding Gluc and CFP separated by an internal ribosomal entry site using a lentiviral vector, were obtained from Dr. Jain at Harvard University. BT474-Gluc cells were maintained in RPMI 1640 supplemented with 10% (v/v) FBS in a humidified oven at 37° C. with 5% CO2. 100,000 BT474-Gluc cells were suspended in 100 μL of RPMI and slowly injected into the left ventricle of female Rag2−/−; Il2rg−/− mice. Injections were performed blind, midway between the sternal notch and top of xyphoid process, and 13% anatomical left of sternum. Successful insertion into the left cardiac ventricle was confirmed by a bright red pulse of blood in the syringe.
(§1) Tumor Size Monitoring. For ICD and IV models, formation of BT474-Gluc brain metastatic tumors was monitored by MRI every third week until macroscopic tumors were visible (˜0.2 mm^3 in volume). Tumor growth was then monitored weekly by MRI, as for the IC model. Mice were anaesthetized with 1.5-2% (v/v) isoflurane in O2 at a flow rate of 1-1.5 mL/min. […] Tumor volume was determined manually from the T2 hyperintense tumor regions of the brain using Fiji software. For the IC model, tumor size was also monitored by measuring the activity of secreted Gluc in the blood. […] Blood was transferred to an opaque 96-well plate (Nunc), and Gluc activity measured using the Pierce Gaussia Luciferase Flash Assay Kit, according to the manufacturer's protocol. Photon counts were acquired for 5 s following addition of coelenterazine using a Safire 2 multi-mode plate reader (Tecan). […]
(§2) Treatments. Treatment began when brain metastatic tumors reached ˜2 mm^3, as measured by MRI. […]
Brain Tumors Show Significant Delay in Growth with TfR-Targeted Nanoparticles, but their Response Differs when Established by Different Methods. […] After IC, ICD or IV injection of BT474-Gluc cells, formation of brain metastatic tumors was monitored by MRI. […]

The nature of data set [2]: Brain uptake of therapeutics in tumor and healthy brain tissue by HPLC. It is filed as in vivo, Rag2−/−; Il2rg−/− mice. To be noted: IC-established brain tumors; 24 h after 4 mg/kg dose (CPT basis). How it is done:
Brain Uptake of Therapeutics Differs in Tumor, but not Healthy Tissue between Models. To ascertain whether differences in brain penetration of the therapeutics might explain the discordance in efficacy between brain metastasis models, we systemically administered an additional dose of each treatment at the end of the efficacy study. After 24 h, mice were anesthetized and perfused with PBS to clear any remaining nanoparticles or free drug from the bloodstream. Drug uptake into tumor and healthy brain tissue was quantified by HPLC as previously described.

Data set [3] has as its system human BT474-Gluc breast cancer metastatic brain tumors. Put plainly: Antitumor efficacy, brain tumors established by IC injection. It is filed as in vivo, Rag2−/−; Il2rg−/− mice. How it is done:
(§3) For the IC model, 50,000 BT474-Gluc cells in 2 μL RPMI were intracranially injected into the right cerebral hemisphere of female Rag2−/−; Il2rg−/− mice (Jackson Laboratory) using a stereotaxic apparatus at a rate of 0.1 μL/min. The coordinates for injection were 2 mm posterior, 1.5 mm lateral to bregma, and 2.5 mm depth from bregma. For the IV model, 2 M cells were suspended in 150 μL RPMI and slowly injected into the lateral tail vein of restrained female Rag2−/−; Il2rg−/− mice.
as §1, with “mL/min. T2-weighted 3D RARE images were acquired to assess the tumor volume.” for “mL/min.”
as §2
Brain Tumors Show Significant Delay in Growth with TfR-Targeted Nanoparticles, but their Response Differs when Established by Different Methods. […] After IC, ICD or IV injection of BT474-Gluc cells, formation of brain metastatic tumors was monitored by MRI. […] Brain tumor volume was measured weekly by MRI. Blood Gluc activity was measured in addition only for the IC model, due to substantial extracranial tumor burden in the ICD and IV models.

Data set [4] has the same test system. Put plainly: Antitumor efficacy, brain tumors established by IV injection. It is filed as in vivo, Rag2−/−; Il2rg−/− mice. On the procedure:
as §3
Tumor Size Monitoring. For ICD and IV models, formation of BT474-Gluc brain metastatic tumors was monitored by MRI every third week until macroscopic tumors were visible (˜0.2 mm^3 in volume). Tumor growth was then monitored weekly by MRI, as for the IC model. Mice were anaesthetized with 1.5-2% (v/v) isoflurane in O2 at a flow rate of 1-1.5 mL/min. T2-weighted 3D RARE images were acquired to assess the tumor volume. The image acquisition parameters were as follows: echo time: 6.1 ms; repetition time: 250 ms; rapid acquisition relaxation enhanced (RARE) factor: 4; number of averages: 4; field of view: 2.0 cm×1.2 cm×0.8 cm; matrix: 200×120×80 ([…] resolution). Tumor volume was determined manually from the T2 hyperintense tumor regions of the brain using Fiji software. For the IC model, tumor size was also monitored by measuring the activity of secreted Gluc in the blood. […] Blood was transferred to an opaque 96-well plate (Nunc), and Gluc activity measured using the Pierce Gaussia Luciferase Flash Assay Kit, according to the manufacturer's protocol. Photon counts were acquired for 5 s following addition of coelenterazine using a Safire 2 multi-mode plate reader (Tecan). […]
as §2
Development of Mouse Model that Replicates the Metastasis Process in HER2-Positive Breast Cancer Brain Metastasis Patients. […] HER2-positive BT474-Gluc cells were intravenously (IV) injected into Rag2^−/−; Il2rg^−/− mice, and formation of brain metastases was monitored by MRI. […]

A short description of data set [5]: Gross toxicity observation during efficacy studies. It is filed as in vivo, Rag2−/−; Il2rg−/− mice. Particulars: tail vein injection once per week for 4 weeks. How it is done: Treatments. Treatment began when brain metastatic tumors reached ˜2 mm^3, as measured by MRI. Mice in each model were randomized into […] of six mice per group. CPT at a dose of 4 mg/kg (in 20% DMSO, 20% PEG 400, 30% ethanol, and 30% 10 mM pH 3.5 phosphoric acid), Herceptin at 24 mg/kg (in PBS, pH 7.4), TfR-targeted CPT nanoparticles at 4 mg/kg (CPT basis, in PBS, pH 7.4), TfR-targeted Herceptin nanoparticles at 24 mg/kg (Herceptin basis, in PBS, pH 7.4), and TfR-targeted combination CPT/Herceptin nanoparticles at 4 and 24 mg/kg (CPT and Herceptin bases, respectively, in PBS, pH 7.4) were freshly prepared. The different formulations were systemically administered by lateral tail vein injection once per week for 4 weeks. Injections were standardized to 150 μL per 20 g body weight. The control treatment was 0.9% (w/v) saline.

[6] abbreviates: 4 mg/kg (CPT basis) weekly x4, end of the study.

On to `CC[C@@]1(O)C(=O)OCc2c1cc1n(c2=O)Cc2cc3ccccc3nc2-1` [CPT, camptothecin], for which the “sensitivity of cells to CPT in vitro” value in the data set on BT474-Gluc cells is “comparable sensitivities to CPT; also recorded: similarly sensitive to CPT”. Further, the Mean tumor volume in data set [1] (setting [6]) was determined as 69 mm^3; in data set [3] (4 mg/kg (CPT basis) tail vein once per week for 4 weeks, end of the study) it was 39 mm^3; in data set [4] (setting [6]), 86 mm^3. In addition, the Median tumor volume in data set [1] (setting [6]) is recorded as 71 mm^3; in data set [3] (setting [6]), 39 mm^3; in data set [4] (setting [6]) it was 86 mm^3. Further, the “tumor growth response” value in data set [1] (compared to saline) is given as “modest response”. For the same compound, the “accumulation in tumor tissue” value in data set [2] was “significant accumulation”. The “decrease in mean tumor volume compared to saline” value in data set [3] (end of the study) worked out at 2.6 fold. The “tumor growth inhibition” value in data set [4] (compared to saline) was “no tumor growth inhibition”. Besides, the “gross signs of toxicity” value in data set [5] was “animals did have reactions to dosing”.
